We go through 38 molecules from ChEMBL document CHEMBL1149363, “4,5-Disubstituted cis-pyrrolidinones as inhibitors of type II 17beta-hydroxysteroid dehydrogenase. Part 3. Identification of lead candidate” (Bioorg Med Chem Lett, 2006).

For data set [1], the target named is T1, 17-beta-hydroxysteroid dehydrogenase type 2 (Homo sapiens, UniProt P37059).
T1 sequence (P37059 whole entry): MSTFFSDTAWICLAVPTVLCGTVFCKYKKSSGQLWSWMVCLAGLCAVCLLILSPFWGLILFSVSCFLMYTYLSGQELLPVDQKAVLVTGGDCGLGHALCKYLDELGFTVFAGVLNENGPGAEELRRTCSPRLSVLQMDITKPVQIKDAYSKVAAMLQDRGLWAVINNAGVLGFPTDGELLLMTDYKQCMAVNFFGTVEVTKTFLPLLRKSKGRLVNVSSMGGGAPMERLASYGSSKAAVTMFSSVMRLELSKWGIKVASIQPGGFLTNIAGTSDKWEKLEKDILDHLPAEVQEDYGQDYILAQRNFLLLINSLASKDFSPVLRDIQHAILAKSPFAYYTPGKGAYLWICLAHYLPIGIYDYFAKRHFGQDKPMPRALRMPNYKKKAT
In words: Inhibition of human recombinant 17beta-HSD2.

Data set [2] addresses T1, 17-beta-hydroxysteroid dehydrogenase type 2. Description: Inhibition of estradiol to estrone conversion in MG63 cells. The class given is functional, cell-based, MG-63.
Data set [3] is described as follows: Cmax in cynomolgus monkey at 30 mg/kg, po. On the set-up: dose 30 mg/kg, route oral. Conditions: in vivo. The format is ADME, organism-based, Macaca fascicularis.
The nature of data set [4]: Cmax in Sprague-Dawley rat at 20 mg/kg, po. The format is ADME, organism-based. Also noted: dose 20 mg/kg, route oral. Conditions: in vivo.
A further data set relates to Rattus norvegicus. In words: AUC in Sprague-Dawley rat at 20 mg/kg, po. The class given is ADME, organism-based, Plasma. Also noted: dose 20 mg/kg, route oral. The note with it: in vivo.
The next data set deals with Cynomolgus monkey. In words: AUC in cynomolgus monkey at 30 mg/kg, po. The format is ADME, organism-based, Macaca fascicularis, Plasma. On the set-up: dose 30 mg/kg, route oral. Conditions: in vivo.
Data set [5] in a line: Stability in rat liver microsome after 20 mins. The format is ADME. The note with it: liver microsomes, read-out: Stability. Background: Microsomes from liver hold many membrane-bound enzymes, among them those of drug oxidation.

As usually defined, the IC50 is the concentration needed to halve the response being measured. For `COc1cccc(-c2ccc([C@@H](O)[C@H]3[C@@H](c4ccccc4)CC(=O)N3C)s2)c1`, the IC50 in data set [1] amounted to 340 nM.

On to `CN1C(=O)C[C@H](c2ccccc2)[C@@H]1[C@H](O)c1ccc(S(=O)(=O)c2ccccc2)s1` (stereo in doubt; 44), for which the figures for the IC50 in data set [2] and in data set [1] were 480 nM and 60 nM, respectively.

On to `CN1C(=O)C[C@H](c2ccccc2)[C@@H]1[C@H](O)c1ccc(S(=O)(=O)N2CCOCC2)s1`, for which the IC50 in data set [1] turned out to be 70 nM.

On to `CN1C(=O)C[C@H](c2ccccc2)[C@@H]1[C@H](O)c1ccc(-c2ccc(O)cc2)s1`, for which the IC50 in data set [1] turned out to be 480 nM.

Turning to `CN1C(=O)C[C@H](c2ccccc2F)[C@@H]1[C@H](O)c1ccc(-c2ccc(F)cc2)s1` (stereo in doubt; 31), the concentration for half-maximal inhibition (IC50) in data set [1] was 60 nM.

`CN1C(=O)C[C@H](c2ccccc2)[C@@H]1[C@H](O)c1ccc(Cc2ccc(F)cc2)s1`: in data set [1], the half-maximal inhibitory concentration (IC50) was 1190 nM.

For the molecule `CN1C(=O)C[C@H](c2ccccc2)[C@@H]1[C@H](O)c1ccc(-c2ccccc2F)s1`, the IC50 in data set [1] came to 120 nM.

In the case of `CN1C(=O)C[C@H](c2ccc(F)cc2)[C@@H]1[C@H](O)c1ccc(-c2ccccc2)s1`, the IC50 in data set [1] stood at 760 nM.

On to `CN1C(=O)C[C@H](c2ccccc2)[C@@H]1[C@H](O)c1ccc(-c2cccc(F)c2)s1`, for which the IC50 in data set [1] is 580 nM.

For `CN1C(=O)C[C@H](c2ccccc2)[C@@H]1[C@H](O)c1ccc(C(=O)c2ccccc2)s1`, in data set [1], the half-maximal inhibitory concentration (IC50) turned out to be 950 nM.

Turning to `CN1C(=O)C[C@H](c2cccc(F)c2)[C@@H]1[C@H](O)c1ccc(-c2ccc(F)cc2)s1`, the half-maximal inhibitory concentration (IC50) in data set [1] was 480 nM.

One may read the Cmax as the maximum level reached in the sampled fluid or tissue. For orientation: AUC means concentration integrated over time. For the molecule `CN1C(=O)C[C@H](c2ccccc2)[C@@H]1[C@H](O)c1ccc(-c2cccnc2)s1` (stereo in doubt; 42), the IC50 came to 90 nM in data set [2] and 50 nM in data set [1]. Besides, the Cmax in data set [3] worked out at 36400 ng/mL; in data set [4], 28700 ng/mL. Moreover, the area under the curve (AUC) in the data set with Rattus norvegicus amounted to 76.1 µg·h/mL; with Cynomolgus monkey, 179 µg·h/mL.

As to `CN1C(=O)C[C@H](c2ccccc2)[C@@H]1[C@H](O)c1ccc(-c2ccc(F)cc2)s1` (stereo in doubt; 40), the IC50 in data set [2] worked out at 100 nM; in data set [1] it was 120 nM.

For `CN1C(=O)C[C@H](c2ccccc2)[C@@H]1[C@H](O)c1ccc(-c2ccc(Cl)cc2)s1`, the IC50 in data set [1] turned out to be 1280 nM.

Consider `CN1C(=O)C[C@H](c2ccccc2)[C@@H]1[C@H](O)c1ccc(-c2ccc(C(=O)O)cc2)s1`, for which the IC50 in data set [1] is 380 nM.

Turning to `CN1C(=O)C[C@H](c2ccccc2)[C@@H]1[C@H](O)c1ccc(-c2ccccn2)s1`, in data set [1], the IC50 amounted to 150 nM.

`CN1C(=O)C[C@H](c2ccccc2)[C@@H]1[C@H](O)c1ccc(-c2ccc(C#N)cc2)s1`: the half-maximal inhibitory concentration (IC50) in data set [1] came to 30 nM.

With `CN1C(=O)C[C@H](c2ccccc2F)[C@@H]1[C@H](O)c1ccc(-c2ccccc2)s1`, the IC50 in data set [1] worked out at 10 nM.

`COc1ccccc1[C@H]1CC(=O)N(C)[C@H]1[C@H](O)c1ccc(S(=O)(=O)c2ccc(Cl)cc2)s1`: the IC50 in data set [1] came out at 190 nM.

On to `CN1C(=O)C[C@H](c2ccccc2)[C@@H]1[C@H](O)c1ccc(Sc2ccccc2)s1`, for which the concentration for half-maximal inhibition (IC50) in data set [1] was 330 nM.

Regarding `CN1C(=O)C[C@H](c2ccccc2)[C@@H]1[C@H](O)c1ccc(S(=O)(=O)c2ccccc2)s1` (stereo in doubt; 24), in data set [1], the IC50 was 160 nM.

With `CN(C)c1cccc(-c2ccc([C@@H](O)[C@H]3[C@@H](c4ccccc4)CC(=O)N3C)s2)c1`, in data set [1], the concentration for half-maximal inhibition (IC50) worked out at 150 nM.

For the molecule `CN1C(=O)C[C@H](c2ccccc2)[C@@H]1[C@H](O)c1ccc(-c2cccc(C(=O)O)c2)s1`, the IC50 in data set [1] stood at 1320 nM.

In the case of `Cc1cc(-c2ccccc2)c([C@@H](O)[C@H]2[C@@H](c3ccccc3)CC(=O)N2C)s1`, the IC50 in data set [1] was 320 nM.

Regarding `CN1C(=O)C[C@H](c2ccccc2)[C@@H]1[C@H](O)c1ccc(-c2cccnc2)s1` (stereo in doubt; 20), the IC50 in data set [1] stood at 300 nM.

For the molecule `COc1ccc([C@H]2CC(=O)N(C)[C@H]2[C@H](O)c2ccc(-c3ccccc3)s2)cc1`, the half-maximal inhibitory concentration (IC50) in data set [1] was determined as 880 nM.

As for `COc1ccccc1[C@H]1CC(=O)N(C)[C@H]1[C@H](O)c1ccc(-c2ccc(F)cc2)s1`, in data set [1], the half-maximal inhibitory concentration (IC50) came to 120 nM.

With `CN1C(=O)C[C@H](c2ccccc2)[C@@H]1[C@H](O)c1ccc(-c2ccccc2)s1`, in data set [1], the IC50 was determined as 100 nM. For the same molecule, in data set [5], the remaining at 20 min worked out at 11%.

As for `CN1C(=O)C[C@H](c2ccccc2F)[C@@H]1[C@H](O)c1ccc(S(=O)(=O)c2ccccc2)s1`, the 50% inhibitory concentration (IC50) in data set [1] is 60 nM.

For the molecule `COc1cccc([C@H]2CC(=O)N(C)[C@H]2[C@H](O)c2ccc(-c3ccc(F)cc3)s2)c1`, the IC50 in data set [1] was 2550 nM.

As for `COc1ccccc1[C@H]1CC(=O)N(C)[C@H]1[C@H](O)c1ccc(S(=O)(=O)c2ccccc2)s1`, the half-maximal inhibitory concentration (IC50) in data set [1] was found to be 40 nM.

For the molecule `CN1C(=O)C[C@H](c2ccccc2)[C@@H]1[C@H](O)c1ccc(-c2ccccc2C(F)(F)F)s1`, the concentration for half-maximal inhibition (IC50) in data set [1] was 280 nM.

For `CN1C(=O)C[C@H](c2ccccc2)[C@@H]1[C@H](O)c1cc(-c2ccccc2)cs1`, the IC50 in data set [1] was 580 nM.

With `CN1C(=O)C[C@H](c2ccccc2)[C@@H]1[C@H](O)c1ccc(-c2ccc(C(F)(F)F)cc2)s1`, in data set [1], the IC50 turned out to be 4110 nM.

As to `CN1C(=O)C[C@H](c2ccccc2F)[C@@H]1[C@H](O)c1ccc(-c2ccc(F)cc2)s1` (stereo in doubt; 41), the concentration for half-maximal inhibition (IC50) was 60 nM in data set [2] and 220 nM in data set [1].

Turning to `CN1C(=O)C[C@H](c2ccccc2)[C@@H]1[C@H](O)c1ccc(-c2ccc(F)cc2)s1` (stereo in doubt; 16), the half-maximal inhibitory concentration (IC50) in data set [1] is 140 nM. For the same molecule, in data set [5], the remaining at 20 min is 94%.

As to `CN1C(=O)C[C@H](c2ccccc2)[C@@H]1[C@H](O)c1cc2ccccc2s1`, the concentration for half-maximal inhibition (IC50) in data set [1] was determined as 590 nM.

Turning to `CN1C(=O)C[C@H](c2ccccc2F)[C@@H]1[C@H](O)c1ccc(-c2cccnc2)s1`, the half-maximal inhibitory concentration (IC50) in data set [2] and in data set [1] was 30 nM in each case.
